ChEMBL document CHEMBL5113418, “Discovery of precision targeting EZH2 degraders for triple-negative breast cancer” (Eur J Med Chem, 2022)

Assays:
MDA-MB-231 = assay: Antiproliferative activity against human MDA-MB-231 cells assessed as cell growth inhibition incubated for 72 hrs by MTT assay; type: functional, cell-based; conditions: MDA-MB-231, 72 h
MDA-MB-468 = assay: Antiproliferative activity against human MDA-MB-468 cells assessed as cell growth inhibition incubated for 72 hrs by MTT assay; type: functional, cell-based; conditions: MDA-MB-468, 72 h

SMILES	IC50 (MDA-MB-231)	IC50 (MDA-MB-468)
Cc1cc(C)c(CNC(=O)c2cc(-c3ccc(N4CCN(C(=O)CCCCCn5cc(CCCCC(=O)N[C@@H](C(=O)N6C[C@H](O)C[C@H]6C(=O)NCc6ccc(-c7scnc7C)cc6)C(C)(C)C)nn5)CC4)nc3)cc3c2cnn3C(C)C)c(=O)[nH]1	35.4 µM	23.2 µM
Cc1cc(C)c(CNC(=O)c2cc(-c3ccc(N4CCNCC4)nc3)cc3c2cnn3C(C)C)c(=O)[nH]1	> 40 µM	> 40 µM
Cc1cc(C)c(CNC(=O)c2cc(-c3ccc(N4CCN(C(=O)Cn5cc(CCCCC(=O)N[C@@H](C(=O)N6C[C@H](O)C[C@H]6C(=O)NCc6ccc(-c7scnc7C)cc6)C(C)(C)C)nn5)CC4)nc3)cc3c2cnn3C(C)C)c(=O)[nH]1	> 40 µM	> 40 µM
Cc1cc(C)c(CNC(=O)c2cc(-c3ccc(N4CCN(C(=O)CCCCC(=O)N[C@H](C(=O)N5C[C@H](O)C[C@H]5C(=O)NCc5ccc(-c6scnc6C)cc5)C(C)(C)C)CC4)nc3)cc3c2cnn3C(C)C)c(=O)[nH]1	> 40 µM	> 40 µM
Cc1cc(C)c(CNC(=O)c2cc(-c3ccc(N4CCN(C(=O)Cn5cc(CCC(=O)N[C@@H](C(=O)N6C[C@H](O)C[C@H]6C(=O)NCc6ccc(-c7scnc7C)cc6)C(C)(C)C)nn5)CC4)nc3)cc3c2cnn3C(C)C)c(=O)[nH]1	> 40 µM	> 40 µM
CCCc1cc(C)[nH]c(=O)c1CNC(=O)c1cc(-c2ccc(N3CCN(C(C)C)CC3)nc2)cc2c1cnn2C(C)C	14.7 µM	7.67 µM
Cc1cc(C)c(CNC(=O)c2cc(-c3ccc(N4CCN(C(=O)CCCCCCC(=O)N[C@H](C(=O)N5C[C@H](O)C[C@H]5C(=O)NCc5ccc(-c6scnc6C)cc5)C(C)(C)C)CC4)nc3)cc3c2cnn3C(C)C)c(=O)[nH]1	25.2 µM	8.24 µM
Cc1cc(C)c(CNC(=O)c2cc(-c3ccc(N4CCN(C(=O)CCCCCn5cc(CCCCCC(=O)N[C@@H](C(=O)N6C[C@H](O)C[C@H]6C(=O)NCc6ccc(-c7scnc7C)cc6)C(C)(C)C)nn5)CC4)nc3)cc3c2cnn3C(C)C)c(=O)[nH]1	26.3 µM	14.5 µM
Cc1cc(C)c(CNC(=O)c2cc(-c3ccc(N4CCN(C(=O)Cn5cc(CCCC(=O)N[C@@H](C(=O)N6C[C@H](O)C[C@H]6C(=O)NCc6ccc(-c7scnc7C)cc6)C(C)(C)C)nn5)CC4)nc3)cc3c2cnn3C(C)C)c(=O)[nH]1	> 40 µM	> 40 µM
Cc1cc(C)c(CNC(=O)c2cc(-c3ccc(N4CCN(CCNC(=O)CC56CC7CC(CC(C7)C5)C6)CC4)nc3)cc3c2cnn3C(C)C)c(=O)[nH]1	> 40 µM	3.41 µM
Cc1cc(C)c(CNC(=O)c2cc(-c3ccc(N4CCN(C(=O)CCCCn5cc(CCCCC(=O)N[C@@H](C(=O)N6C[C@H](O)C[C@H]6C(=O)NCc6ccc(-c7scnc7C)cc6)C(C)(C)C)nn5)CC4)nc3)cc3c2cnn3C(C)C)c(=O)[nH]1	> 40 µM	> 40 µM
Cc1cc(C)c(CNC(=O)c2cc(-c3ccc(N4CCN(C(=O)CCCCCCCC(=O)N[C@H](C(=O)N5C[C@H](O)C[C@H]5C(=O)NCc5ccc(-c6scnc6C)cc5)C(C)(C)C)CC4)nc3)cc3c2cnn3C(C)C)c(=O)[nH]1	5.15 µM	3.08 µM

The remaining lines, values ahead:

IC50 (MDA-MB-231)	IC50 (MDA-MB-468)	SMILES
30.3 µM	22.3 µM	Cc1cc(C)c(CNC(=O)c2cc(-c3ccc(N4CCN(C(=O)CCCCc5cn(CCOCCOCCOCCOCCOCCNc6cccc7c6C(=O)N(C6CCC(=O)NC6=O)C7=O)nn5)CC4)nc3)cc3c2cnn3C(C)C)c(=O)[nH]1 (stereo unspecified)
21.8 µM	4.02 µM	CCN(c1cc(-c2ccc(N3CCN(C(=O)CCCCCCCCc4cn(CCOCCOCCOCCOCCNc5cccc6c5C(=O)N(C5CCC(=O)NC5=O)C6=O)nn4)CC3)nc2)cc(C(=O)NCc2c(C)cc(C)[nH]c2=O)c1C)C1CCOCC1 (stereo unspecified)
19.2 µM	2.03 µM	Cc1cc(C)c(CNC(=O)c2cc(-c3ccc(N4CCN(C(=O)CCCCCCCCc5cn(CCOCCOCCOCCOCCNc6cccc7c6C(=O)N(C6CCC(=O)NC6=O)C7=O)nn5)CC4)nc3)cc3c2cnn3C(C)C)c(=O)[nH]1 (stereo unspecified)
> 40 µM	33.6 µM	Cc1cc(C)c(CNC(=O)c2cc(-c3ccc(N4CCN(C(=O)CCCc5cn(CCOCCOCCOCCOCCOCCNc6cccc7c6C(=O)N(C6CCC(=O)NC6=O)C7=O)nn5)CC4)nc3)cc3c2cnn3C(C)C)c(=O)[nH]1 (stereo unspecified)
> 40 µM	> 40 µM	Cc1cc(C)c(CNC(=O)c2cc(-c3ccc(N4CCN(C(=O)CCCCCCCCc5cn(CCOCCOCCNc6cccc7c6C(=O)N(C6CCC(=O)NC6=O)C7=O)nn5)CC4)nc3)cc3c2cnn3C(C)C)c(=O)[nH]1 (stereo unspecified)
1.28 µM	1.07 µM	CCN(c1cc(-c2ccc(N3CCN(C(=O)CCCCCCCCc4cn(CCOCCOCCOCCOCCOCCOCCNc5cccc6c5C(=O)N(C5CCC(=O)NC5=O)C6=O)nn4)CC3)nc2)cc(C(=O)NCc2c(C)cc(C)[nH]c2=O)c1C)C1CCOCC1 (stereo unspecified)
24.4 µM	4.21 µM	CC[C@H](C)n1cc(C)c2c(C(=O)NCc3c(C)cc(C)[nH]c3=O)cc(-c3ccc(N4CCN(C(=O)CCCCCCCCc5cn(CCOCCOCCOCCOCCNc6cccc7c6C(=O)N(C6CCC(=O)NC6=O)C7=O)nn5)CC4)nc3)cc21 (stereo partly specified)
16.4 µM	7.63 µM	Cc1cc(C)c(CNC(=O)c2cc(-c3ccc(N4CCN(C(=O)CCCCCn5cc(CCCCCCCCC(=O)N[C@@H](C(=O)N6C[C@H](O)C[C@H]6C(=O)NCc6ccc(-c7scnc7C)cc6)C(C)(C)C)nn5)CC4)nc3)cc3c2cnn3C(C)C)c(=O)[nH]1
1.09 µM	0.7 µM	CCN(c1cc(-c2ccc(N3CCN(C(=O)CCCCCCCCc4cn(CCOCCOCCOCCOCCOCCNc5cccc6c5C(=O)N(C5CCC(=O)NC5=O)C6=O)nn4)CC3)nc2)cc(C(=O)NCc2c(C)cc(C)[nH]c2=O)c1C)C1CCOCC1 (stereo unspecified)
> 40 µM	23.2 µM	Cc1cc(C)c(CNC(=O)c2cc(-c3ccc(N4CCN(C(=O)CCCCCCCCc5cn(CCOCCOCCOCCNc6cccc7c6C(=O)N(C6CCC(=O)NC6=O)C7=O)nn5)CC4)nc3)cc3c2cnn3C(C)C)c(=O)[nH]1 (stereo unspecified)
1.21 µM	0.89 µM	Cc1cc(C)c(CNC(=O)c2cc(-c3ccc(N4CCN(C(=O)CCCCCCCCc5cn(CCOCCOCCOCCOCCOCCNc6cccc7c6C(=O)N(C6CCC(=O)NC6=O)C7=O)nn5)CC4)nc3)cc3c2cnn3C(C)C)c(=O)[nH]1 (stereo unspecified)
1.63 µM	1.01 µM	Cc1cc(C)c(CNC(=O)c2cc(-c3ccc(N4CCN(C(=O)CCCCCCCCc5cn(CCOCCOCCOCCOCCOCCOCCOCCNc6cccc7c6C(=O)N(C6CCC(=O)NC6=O)C7=O)nn5)CC4)nc3)cc3c2cnn3C(C)C)c(=O)[nH]1 (stereo unspecified)
1.7 µM	1.14 µM	Cc1cc(C)c(CNC(=O)c2cc(-c3ccc(N4CCN(CCCCCCc5cn(CCOCCOCCOCCOCCOCCNc6cccc7c6C(=O)N(C6CCC(=O)NC6=O)C7=O)nn5)CC4)nc3)cc3c2cnn3C(C)C)c(=O)[nH]1 (stereo unspecified)
> 40 µM	> 40 µM	Cc1cc(C)c(CNC(=O)c2cc(-c3ccc(N4CCN(C(=O)CCc5cn(CCOCCOCCOCCOCCOCCNc6cccc7c6C(=O)N(C6CCC(=O)NC6=O)C7=O)nn5)CC4)nc3)cc3c2cnn3C(C)C)c(=O)[nH]1 (stereo unspecified)
5.05 µM	2.86 µM	Cc1cc(C)c(CNC(=O)c2cc(-c3ccc(N4CCN(CCCCc5cn(CCOCCOCCOCCOCCOCCNc6cccc7c6C(=O)N(C6CCC(=O)NC6=O)C7=O)nn5)CC4)nc3)cc3c2cnn3C(C)C)c(=O)[nH]1 (stereo unspecified)
11.2 µM	1.29 µM	CC[C@H](C)n1cc(C)c2c(C(=O)NCc3c(C)cc(C)[nH]c3=O)cc(-c3ccc(N4CCN(C(=O)CCCCCCCCc5cn(CCOCCOCCOCCOCCOCCNc6cccc7c6C(=O)N(C6CCC(=O)NC6=O)C7=O)nn5)CC4)nc3)cc21 (stereo partly specified)
